Publication doi:10.1101/2024.12.23.630085, “Accurate sequence-to-affinity models for SH2 domains from multi-round peptide binding assays coupled with free-energy regression” (bioRxiv, 2025)
Non-standard residues stand in square brackets, D forms with d. Residues, ends and D or L forms follow the SMILES beside them. pY = N[C@@H](Cc1ccc(OP(=O)(O)O)cc1)C(=O)O

molecular target: T1, c-Src SH2 domain (Homo sapiens, UniProt P12931); assay: Competitive fluorescence polarization, c-Src SH2; type: binding; conditions: Table S3 unpaired validation; competition fluorescence polarization; probe FITC-Ahx-GDG-pY-EEISPLLL-NH2 30 nM; [SH2] 123-126 nM; mean
T1 construct: the SH2 domains of two closely-related kinases from the Src subfamily (c-Src and Fyn); made in house
Description: (§1) All peptides containing phosphorylated tyrosine, both fluorescently labelled and non-labelled, were produced by SynPeptide (China).

Compound	Kd
Ac-QKEAHH-pY-VNWRTG-NH2 [Syn-G2-1 (synthetic)]	9.66 µM

same assay, conditions: Table S5 single-amino-acid substitution pairs; competition fluorescence polarization; probe FITC-Ahx-GDG-pY-EEISPLLL-NH2 30 nM; [SH2] 240 nM; mean

Compound	Kd
CC[C@H](C)[C@H](NC(=O)[C@H](CC(C)C)NC(=O)[C@H](CO)NC(=O)[C@H](Cc1ccc(OP(=O)(O)O)cc1)NC(=O)[C@H](CCCNC(=N)N)NC(=O)[C@H](CCCNC(=N)N)NC(=O)[C@H](CCC(N)=O)NC(=O)[C@H](CC(=O)O)NC(=O)[C@H](CO)NC(=O)[C@H](CCC(N)=O)NC(C)=O)C(=O)N[C@@H](CC(=O)O)C(=O)N[C@@H](CCCNC(=N)N)C(=O)NCC(N)=O [CLIP2 pY972] (Ac-QSDQRR[pY]SLIDRG-NH2)	3.98 µM
CC[C@H](C)[C@H](NC(=O)CNC(=O)[C@H](CCC(=O)O)NC(=O)[C@@H](NC(=O)[C@H](CCC(N)=O)NC(C)=O)C(C)C)C(=O)NCC(=O)N[C@@H](Cc1ccc(OP(=O)(O)O)cc1)C(=O)N[C@@H](CC(=O)O)C(=O)N[C@@H](Cc1ccccc1)C(=O)N[C@H](C(=O)N1CCC[C@H]1C(=O)N[C@H](C(=O)NCC(N)=O)[C@@H](C)O)[C@@H](C)CC [CBS pY308] (Ac-QVEGIG[pY]DFIPTG-NH2)	2.73 µM
CC[C@H](C)[C@H](NC(=O)[C@@H]1CCCN1C(=O)[C@H](CCC(N)=O)NC(C)=O)C(=O)N[C@@H](Cc1ccccc1)C(=O)N[C@@H](CCC(=O)O)C(=O)NCC(=O)N[C@@H](Cc1ccc(OP(=O)(O)O)cc1)C(=O)N[C@@H](C)C(=O)N[C@@H](CC(C)C)C(=O)N1CCC[C@H]1C(=O)N[C@@H](Cc1c[nH]cn1)C(=O)N[C@@H](C)C(=O)NCC(N)=O [ACTA1 pY171] (Ac-QPIFEG[pY]ALPHAG-NH2)	4.67 µM
CC(=O)N[C@@H](CCC(N)=O)C(=O)N[C@@H](CO)C(=O)N[C@@H](CC(C)C)C(=O)N[C@@H](CCC(=O)O)C(=O)N[C@@H](CCCCN)C(=O)N[C@@H](CO)C(=O)N[C@@H](Cc1ccc(OP(=O)(O)O)cc1)C(=O)N[C@@H](CCC(=O)O)C(=O)N[C@@H](CC(C)C)C(=O)N1CCC[C@H]1C(=O)N[C@@H](CC(=O)O)C(=O)NCC(=O)NCC(N)=O [ACTB pY240] (Ac-QSLEKS[pY]ELPDGG-NH2)	9.04 µM
CC[C@H](C)[C@H](NC(=O)CNC(=O)[C@H](CCC(=O)O)NC(=O)[C@@H](NC(=O)[C@H](CCC(N)=O)NC(C)=O)C(C)C)C(=O)N[C@@H](CO)C(=O)N[C@@H](Cc1ccc(OP(=O)(O)O)cc1)C(=O)N[C@@H](CC(=O)O)C(=O)N[C@@H](Cc1ccccc1)C(=O)N[C@H](C(=O)N1CCC[C@H]1C(=O)N[C@H](C(=O)NCC(N)=O)[C@@H](C)O)[C@@H](C)CC [CBS pY308 G307S] (Ac-QVEGIS[pY]DFIPTG-NH2)	4.28 µM
CC(=O)N[C@@H](CCC(N)=O)C(=O)N[C@@H](CO)C(=O)N[C@@H](CC(C)C)C(=O)N[C@@H](CCC(=O)O)C(=O)N[C@@H](CCCCN)C(=O)N[C@@H](CO)C(=O)N[C@@H](Cc1ccc(OP(=O)(O)O)cc1)C(=O)N[C@@H](CCC(=O)O)C(=O)N[C@@H](CC(C)C)C(=O)N[C@@H](CC(C)C)C(=O)N[C@@H](CC(=O)O)C(=O)NCC(=O)NCC(N)=O [ACTB pY240 P243L] (Ac-QSLEKS[pY]ELLDGG-NH2)	6.09 µM

molecular target: T2, Fyn SH2 domain (Homo sapiens, UniProt P06241); assay: Competitive fluorescence polarization, Fyn SH2; type: binding; conditions: Table S3 unpaired validation; competition fluorescence polarization; probe FITC-Ahx-GDG-pY-EEISPLLL-NH2 0.4 nM; [SH2] 4.12 nM; mean
T2 construct: The human SH2 domains from Fyn (142–248), Lyn (121–228); His6-SUMO (N, cleaved yes); made in house; host or cells: E. coli C43(DE3) with BirA helper plasmid
Protocol: Next, the protein was eluted with elution buffer (50 mM Tris, pH 7.5, 50 mM NaCl, 250 mM imidazole, 10% glycerol) directly onto a 5 mL HiTrap Q HP anion exchange column (Cytiva). […] The biotinylated SH2 domain was then collected in a flowthrough after running the cleavage reaction over a HisTrap HP column.

T2 sequence (P06241 142-248): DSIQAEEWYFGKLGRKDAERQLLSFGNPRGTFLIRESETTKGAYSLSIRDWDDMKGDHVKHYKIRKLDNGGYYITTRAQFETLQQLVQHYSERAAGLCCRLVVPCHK

Compound	Kd
Ac-QLHVHP-pY-EKVEDG-NH2 [Syn-F-1 (synthetic)]	0.0302 µM
Ac-QMEKHV-pY-ESVTQG-NH2 [Syn-F-2 (synthetic)]	0.0183 µM

molecular target: T3, Grb2 SH2 domain (Homo sapiens, UniProt P62993); assay: Competitive fluorescence polarization, Grb2 SH2; type: binding; conditions: Table S3 unpaired validation; competition fluorescence polarization; probe FITC-Ahx-FDDPS(pY)VNVQN 30 nM; [SH2] 123 nM; mean
T3 construct: one distantly-related SH2 domain from the adapter protein Grb2; His6-SUMO (N); mCh (only in the data set names 'Grb2mCh'; possibly an mCherry fusion, never explained); made in house
Description: as §1

T3 sequence (P62993 60-152 limits assumed): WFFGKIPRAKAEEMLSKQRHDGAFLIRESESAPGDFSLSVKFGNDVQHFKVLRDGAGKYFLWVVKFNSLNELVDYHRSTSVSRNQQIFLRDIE

Compound	Kd
Ac-QHRLNN-pY-ENNRLG-NH2 [Syn-G2-6 (synthetic)]	2.25 µM
Ac-QIEVGT-pY-QNPHNG-NH2 [Syn-G2-7 (synthetic)]	3.24 µM
Ac-QKEAHH-pY-VNWRTG-NH2 [Syn-G2-1 (synthetic)]	0.0318 µM
Ac-QLGHQR-pY-HNITPG-NH2 [Syn-G2-5 (synthetic)]	0.487 µM
Ac-QHNIHS-pY-INIPPG-NH2 [Syn-G2-2 (synthetic)]	0.00399 µM
